According to patent US20220339135A1, “COMPOSITIONS AND METHODS FOR MODULATING AN INFLAMMATORY RESPONSE” (Enzychem Lifesciences Corporation, priority 2019, published 2022):

Legend:
[1] = [14C] PLAG radioactivity in blood and lymph fluid; assay type: in vivo, rats; details: single oral [14C] PLAG
Protocol: Quantification of PLAG in blood and lymph fluid was performed in Mitsubishi Chemical Medicine Corporation (Japan) by radioactivity analysis. [^14C] PLAG was synthesized by the LSI Medience Corporation (Kumamoto, Japan). The specific activities were 348.9 kBq/mg. The purity of the compound was 99.7%. The pharmacokinetics of [^14C] PLAG were determined in Crl: CD (SD) rats (Charles River Laboratories Japan, Inc.). Rats received [^14C] PLAG at 100 mg/5 mL/kg (dosing radioactivity: 5 MBq/kg) via the oral route. To determine radioactivity concentration in lymph fluid, the abdominal large thoracic duct-cannulated animals were fitted with collars while under isoflurane anesthesia and were subjected to the administration at least 30 minutes after collar fitting. […] Each of the collected samples was measured for radioactivity. Blood was collected from the subclavian vein and used to determine the radioactivity. […] Radioactivity was measured by LSC (Tri-Carb 2300TR. Perkin Elmer, Inc) with the tSIE (transformed spectral index of external standard) method for the quenching correction.
Quantification of PLAG in blood and lymph fluid was performed in Mitsubishi Chemical Medicine Corporation (Japan) by radioactivity analysis. […] PLAG were determined in Crl: CD (SD) rats (Charles River Laboratories Japan, Inc.). […] PLAG at 100 mg/5 mL/kg (dosing radioactivity: 5 MBq/kg) via the oral route. […]

[2] = system: IMQ-induced psoriasis; assay: IMQ-induced psoriasis-like skin inflammation in mice; assay type: in vivo; details: PLAG 250 mg/kg/day orally, 5 days
From the text: Vaseline (Unilever, United Kingdom) was used as a control vehicle cream. […] Control (non-treated) and IMQ-treated groups were administrated orally with the same PBS daily. Psoriasis was scored by a blinded investigator using published criteria based on the following parameters: erythema, scaling, and thickening. […] The tissue sections were stained with hematoxylin and eosin (H&E). For IHC analyses, back skin serial sections were cut and mounted on charged glass slides (Superfrost Plus; Fisher Scientific, Rochester, N.Y., USA). The sections were deparaffinized and then treated with 3% hydrogen peroxide in methanol to quench the endogenous peroxidase activity. […] The sections were incubated with the primary anti-mouse IL-17 (abcam) antibody (1:100) or rat anti-mouse neutrophil (NIMP-R14, Thermo Fisher Scientific Inc.) antibody (1:100) at 4° C. overnight. […] On Day 5, mice were sacrificed and the isolated tissues were analyzed (FIG. 10A). On Day 5, mice were sacrificed and the isolated back skin tissues of control, IMQ treated and IMQ/PLAG co-treated mice were analyzed (FIG. 10B). […] The scoring of control, IMQ treated, and IMQ/PLAG co-treated mice calculated by a blinded investigator using published criteria based on the following parameters: erythema, scaling, and thickening (FIG. 10C). IMQ-treated back skin and one ear were isolated and skin thickness was measured (FIGS. 10D and 10E). […]

[3] = system: SR-A silenced cells; assay: Phagocytosis and ROS in SR-A silenced cells; assay type: cell-based
[4] = system: chemo-radiation induced oral mucositis; assay: Chemo-radiation induced oral mucositis (CRIOM), Example 48; assay type: in vivo, mice
Protocol: Mice (7-9 weeks, Balb/[…]) were administered intraperitoneally 5-FU (100 mg/kg, Sigma Aldrich). After 1 hr, mice head received 20 Gy using x-ray irradiatior (X-RAD 320, 1.8 Gy/min). Custom-made lead shields were used for mice to limit the radiation to the heads. PLAG (Enzychem Lifesciences Co.) was administered orally with 250 mg/kg once daily. The experimental design of the study was represented in schematic design. […] Toluidine blue stains ribonucleotides and detect inflammatory tissues.

## CCCCC/C=C\C/C=C\CCCCCCCC(=O)OC(COC(C)=O)COC(=O)CCCCCCCCCCCCCCC (racemic) [PLAG, 1-palmitoyl-2-linoleoyl-3-acetylglycerol]
[1]
  PLAG in lymphatic vessel versus blood vessel: More PLAG was detected in the lymphatic vessel than blood vessel
[1]; blood and lymph fluid
  time of highest concentration: 8 h
[2]
  IMQ-induced psoriasis symptoms: effectively resolved
[3]; SR-A silenced cells
  PAMP molecules-induced intracellular ROS: does not increase
[3]; knockdown of SR-A
  enhanced phagocytosis by PLAG: does not show the enhanced phagocytosis
[4]; PLAG 250 mg/kg once daily, day 9
  mucositis and ulcer in tongues: no mucositis and ulcer
[4]; PLAG treated group n=8, day 9
  mice tongues stained with toluidine blue: one out of eight
